Measured values from patent US9481671B2, “Glucosylceramide synthase inhibition for the treatment of collapsing glomerulopathy and other glomerular disease” (Genzyme Corporation, priority 2008, dated 2016).

Test system: GM3
Experiment: GM3 Elisa Assay (B16-FO cells)
Type: cell-based
Conditions: 48 h, Table 3, 2 days with compound, read-out: IC50_uM_Mean
Procedure: B16-FO cells from ATCC (American Tissue Culture Collection) were grown in DMEM media (ATCC) with 10% Fetal Bovine Serum (Hyclone) and Pen/Step/Glutamine (Biowhittaker). 4000 cells per well were plated on collagen coated plates (BD) and allowed to attach for 6 hours in an incubator (37 degrees, 5% CO2). After 6 hours the compounds and controls were added to the wells, the plates mixed and returned to the incubator for 2 days. Day of assay the cells were fixed for 20 minutes with 1% formaldehyde and then washed with Tris Buffered Saline (TBS) 3 times, 150 μl of TBS was left in the wells and 50 μl of goat serum (Invitrogen) was added, the plates mixed and incubated for 1 hour at room temperature. The plates were flicked and the cells incubated with the monoclonal Antibody to GM3 (NeuAc) (Cosmo) for 45 minutes as room temperature. The plates were then washed 3 times with TBS, leaving 150 μl of TBS in the wells and Peroxidase AffinPure F (ab′) 2 frag Gt Anti-mouse IgM, μ Chain Specific (Jackson Immno Research) was added in 50 μl, the plates mixed and incubated for 45 minutes at room temperature. The plates were washed 3 times with TBS, flicked and blotted and 100 μl of Quantablu (Pierce) was added to the wells and incubated for 1 hour then read on a Fluorometer at Ex 325 and Em 420. The data was then analyzed using standard programs.

SMILES: O=C(CCCc1nc(C2CC2)no1)N[C@H](CN1CCCC1)[C@H](O)c1ccc2c(c1)OCCO2 [Compound 648]
- IC50: 1000 to 3000 nM

SMILES: Cc1noc(CCCCC(=O)N[C@H](CN2CCCC2)[C@H](O)c2ccc3c(c2)OCCO3)n1 [Compound 649]
- IC50: 3000 to 10000 nM
